Measured values from the supplement of paper PMC9763283.
Where a name gives a salt, the structure may show the parent alone.

What was measured:
Assay in all cases: area under growth-rate inhibition curve (AUC GRI) (dimensionless (GR-based AUC)); higher = less growth inhibition
Details in all cases: exposure time: 72 h; concentrations: 0.1, 1, 10 uM
MDA-MB-468 = test system: MDA-MB-468
Summary of the method: (§1)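 Nuclear counts from Hoechst 33342- or DAPI-stained images were used to estimate the area under the growth-rate inhibition curve, with growth corrected by reference to untreated and DMSO-treated plates and starting plates. The six breast cancer cell line models, comprising two triple-negative lines and parental and drug-combination-resistant HER2+ lines, were treated with compound at 0.1, 1 or 10 µM for 72 h. Data came from 2 biological replicates, using Day 0 and Day 3 plates.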

BT474-P = test system: BT474-P
Summary of the method: as §1

MDA-MB-231 = test system: MDA-MB-231
Summary of the method: as §1

SKBR3-LTR = test system: SKBR3-LTR
Summary of the method: as §1

BT474-LTR = test system: BT474-LTR
Summary of the method: as §1

SKBR3-P = test system: SKBR3-P
Summary of the method: as §1

Structure (SMILES)	area under growth-rate inhibition curve (MDA-MB-468)	area under growth-rate inhibition curve (BT474-P)	area under growth-rate inhibition curve (MDA-MB-231)	area under growth-rate inhibition curve (SKBR3-LTR)	area under growth-rate inhibition curve (BT474-LTR)	area under growth-rate inhibition curve (SKBR3-P)
CCOC(=O)c1ncn2c1CN(C)C(=O)c1cc(F)ccc1-2 [Flumazenil]	1.02	1.03	1.01	1.03	1.06	0.989
CNC[C@H](O)c1ccc(O)c(O)c1.O=C(O)[C@H](O)[C@@H](O)C(=O)O [Epinephrine Bitartrate]	1.02	1.03	0.946	1.1	1.06	1.01
Cl.Cl.NCCc1cnc[nH]1 [Histamine 2HCl]	1.02	1.05	1.02	1.05	1.11	1.01
CCN1CCCC1CNC(=O)c1cc(S(N)(=O)=O)ccc1OC (configuration not stated) [Levosulpiride]	1.03	1.02	1.01	1.05	1.06	1.01
CC1(C)O[C@@H]2[C@@H](CO[C@@]3(COS(N)(=O)=O)OC(C)(C)O[C@@H]23)O1 [Topiramate]	1.05	1.02	1.03	1.04	1.05	1.02
N[C@@H](Cc1ccc(O)c(O)c1)C(=O)O [L-DOPA]	1.05	0.987	1.05	1.05	1.04	1.03
CC(C)(C)NCC(O)COc1cccc2c1CCC(=O)N2.[Cl-].[H+] (configuration not stated) [Carteolol HCl]	1.03	1.05	1.04	1.1	1.11	1.04
COc1ccc(OC)c(C(O)C(C)N)c1 (configuration not stated) [methoxamine]	1.05	1.01	1.05	1.04	1.07	1.05
CC(C)C[C@@H]1NC(=O)[C@@H](C(C)C)NC(=O)[C@@H]2CCCN2C(=O)[C@@H](CC(=O)O)NC(=O)[C@@H](Cc2c[nH]c3ccccc23)NC1=O [BQ-123]	0.996	0.983	0.988	1.03	1.02	1.01
CCOC(=O)c1cncn1C(C)c1ccccc1 (configuration not stated) [Etomidate]	1.03	1.08	1.05	1.07	1.09	0.999
CCCCOc1ccc(C(=O)Nc2ccc(F)cc2F)cc1	1.01	1.02	1.02	1.05	1.06	1.01
COCCCN1CCC(NC(=O)c2cc(Cl)c(N)c3c2OCC3)CC1 [Prucalopride]	1.04	1.02	1.05	1.06	1.07	1.01
CN(C)CCC[C@@]1(c2ccc(F)cc2)OCc2cc(C#N)ccc21.O=C(O)C(=O)O [Escitalopram Oxalate]	1.02	1.03	1.02	1.02	1.1	0.985
CCCC1O[C@@H]2C[C@H]3[C@@H]4CCC5=CC(=O)C=C[C@]5(C)[C@H]4[C@@H](O)C[C@]3(C)[C@]2(C(=O)CO)O1 (some centres not stated) [Budesonide]	1.03	0.901	0.971	1.03	0.98	0.912
O=C(O)c1cccnc1Nc1cccc(C(F)(F)F)c1 [Niflumic acid]	1.03	1.01	1.03	1.04	1.07	1.01
N#Cc1ccccc1-c1cc(-c2ccccn2)cn(-c2ccccc2)c1=O [Perampanel]	1.02	1.01	1.03	1.05	1.05	1.03
CC1(C)C[C@@H]1C(=O)N/C(=C\CCCCSC[C@H](N)C(=O)O)C(=O)[O-].[Na+] [Cilastatin sodium]	1.02	1.03	1	1.03	1.05	1.01
CN(C)CCc1c[nH]c2ccc(C[C@H]3COC(=O)N3)cc12 [Zolmitriptan]	1.05	1.06	1.06	1.07	1.09	1.03
COc1cc2nc(N3CCN(C(=O)C4CCCO4)CC3)nc(N)c2cc1OC.O.[Cl-].[H+] (configuration not stated) [Terazosin HCl]	1.04	1.02	1.02	1.1	1.09	1.03
OCCN1CCN(CCCN2c3ccccc3Sc3ccc(C(F)(F)F)cc32)CC1.[Cl-].[Cl-].[H+].[H+] [Fluphenazine (dihydrochloride)]	0.953	0.966	0.991	1.05	1.06	0.975
COc1ccccc1N1CCN(CC(O)COc2cccc3ccccc23)CC1.[Cl-].[Cl-].[H+].[H+] (configuration not stated) [Naftopidil DiHCl]	0.995	0.978	1.02	1.05	1.02	0.983
CCC1(c2c[nH]cn2)Cc2ccccc2C1 [Atipamezole hydrochloride]	1.02	1.04	1.03	1.07	1.11	0.985
COc1ccccc1N1CCN(CCCNc2cc(=O)n(C)c(=O)n2C)CC1.[Cl-].[H+] [Urapidil HCl]	1.04	1.03	1.02	1.09	1.1	1.04
Cc1[nH]c(=O)c(C#N)cc1-c1ccncc1 [Milrinone]	1.03	1.03	1.04	1.07	1.05	1.02
CN(C)C(=O)Oc1ccc[n+](C)c1.[Br-] [Pyridostigmine Bromide]	1.03	1.04	1.05	1.04	1.07	0.997
Cc1cccn2c(=O)c(-c3nnn[n-]3)cnc12.[K+] [Pemirolast Potassium]	1.04	1.04	1.05	1.05	1.05	1.03
CCC(=O)NCC[C@@H]1CCc2ccc3c(c21)CCO3 [Ramelteon]	1.05	1.05	1.03	1.06	1.1	1.03
